US9605025B2, “Antagonist peptide of the bond between CD47 and a protein belonging to the thrombospondin family” (Universite de Reims Champagne Ardenne, priority 2011, dated 2017)

Tests used:
TSP1/CD47 complexes = molecular target: T1, TSP1/CD47 complexes (Homo sapiens, UniProt P07996); assay: immunoprecipitation of TSP1/CD47 complexes with anti-CD47 antibody and Western Blot in MDA-MB-231 cells; type: cell-based; conditions: MDA-MB-231 breast cancer cells, 100 μM peptide
T1 construct: endogenous in cells; host or cells: MDA-MB-231 breast cancer cells
Experimental: FIG. 5 is a photo illustration showing the inhibition of the biomolecular interaction between the TSP1 and the CD47 receptor of the MDA-MB-231 breast cancer cells. The cells are incubated for 2 hours with […] 100 μM of the antagonist peptide according to the invention. The TSP1/CD47 complexes are then immunoprecipitated using an anti-CD47 antibody, then the presence of TSP1 and CD47 is analyzed using the Western Blot technique.
Thus, MDA-MB-231 cells corresponding to cells from a breast cancer were incubated for 24 hours with or without the dodecapeptide according to this invention. In particular, the peptide used was the one with sequence:
Immunoprecipitation of the complexes, with an antibody directed against the CD47, then an analysis of the TSP1 and CD47 proteins by the Western Blot method were then done.

B16-F1 mouse melanoma = B16-F1 mouse melanoma model in syngeneic C57Bl/6 mice; type: in vivo
Experimental: FIG. 6 is a photo illustration showing the action of the cyclized antagonist peptide on mouse melanoma cells. After a subcutaneous injection of 250,000 B16-F1 mouse melanoma cells into syngeneic C57Bl/6 mice, intraperitoneal administrations of 10 mg/kg of the antagonist were given on days 3, 5 and 7. The mice were then sacrificed and the tumors photographed on day 20.
FIG. 7 is a photo illustration corresponding to an MRI analysis of an untreated tumor (on the left) and a tumor treated with the cyclized peptide of interest on day 12. An arrow points to the necrotic area.
was also tested directly in vivo on a B16-F1 mouse melanoma model injected into syngeneic C57Bl/6 mice.
FIG. 7 allows a comparison, thanks to a magnetic resonance imaging (RMI) analysis, of the tumor taken from the animal not treated with the tumor taken from the animal treated with the cyclized peptide by means of a disulfide bridge on day 12 after the injection of the tumor cells.

[1] = system: thyroid carcinoma cells (FTC-133); assay: viability of FTC-133 thyroid carcinoma cells treated with camptothecin or doxorubicin; type: cell-based, human; conditions: FTC-133, 5 μM camptothecin or doxorubicin; for viability of the tumor cells: 100 μM peptide
Experimental: FIG. 2 is a graph illustration showing the role of the peptide 4N1 (KRFYVVMWK (SEQ ID NO: 5), derived from the C-terminal domain of TSP1, and the CD47 receptor on the regulation of apoptosis induced by camptothecin (Cpt) or doxorubicin (Dox). To achieve this, thyroid carcinoma cells (FTC-133) were incubated with 5 μM of one or other of the drugs and 100 μM of test peptide 4N1 with or without B6H12 antibody (100 μg/mL) blocking the CD47 receptor. The same experiment was performed with a control peptide 4NGG (KRFYGGMWK SEQ ID NO:6), which is incapable of binding the CD47.
The inventors therefore sought to understand the role of the peptide 4N1 and the CD47 receptor in the inhibition of the apoptosis of cancer cells, and in particular the FTC-133 cells of human thyroid carcinoma (Rath et al., 2006).

[2] = system: follicular thyroid carcinoma cells; assay: caspase-3 activity (marker of apoptosis) in follicular thyroid carcinoma cells treated with camptothecin or doxorubicin; type: cell-based, human; conditions: in the presence of doxorubicin or camptothecin, with vs without TSP1
Experimental: FIG. 1 is a graph illustration showing the caspase-3 activity, a marker of apoptosis, obtained by measuring the quantity of para-nitroaniline released per hour per μg of protein (y-axis). The caspase-3 activity is measured on follicular thyroid carcinoma cells in the presence of an anticancer molecule inducing apoptosis, camptothecin (Cpt) or doxorubicin (Dox) in the presence or absence of TSP1.
The latter therefore reduces the rate of apoptosis of the thyroid carcinoma cells subjected to an anti-cancer therapy.

T1 sequence (P07996 19-1170, one chain of several): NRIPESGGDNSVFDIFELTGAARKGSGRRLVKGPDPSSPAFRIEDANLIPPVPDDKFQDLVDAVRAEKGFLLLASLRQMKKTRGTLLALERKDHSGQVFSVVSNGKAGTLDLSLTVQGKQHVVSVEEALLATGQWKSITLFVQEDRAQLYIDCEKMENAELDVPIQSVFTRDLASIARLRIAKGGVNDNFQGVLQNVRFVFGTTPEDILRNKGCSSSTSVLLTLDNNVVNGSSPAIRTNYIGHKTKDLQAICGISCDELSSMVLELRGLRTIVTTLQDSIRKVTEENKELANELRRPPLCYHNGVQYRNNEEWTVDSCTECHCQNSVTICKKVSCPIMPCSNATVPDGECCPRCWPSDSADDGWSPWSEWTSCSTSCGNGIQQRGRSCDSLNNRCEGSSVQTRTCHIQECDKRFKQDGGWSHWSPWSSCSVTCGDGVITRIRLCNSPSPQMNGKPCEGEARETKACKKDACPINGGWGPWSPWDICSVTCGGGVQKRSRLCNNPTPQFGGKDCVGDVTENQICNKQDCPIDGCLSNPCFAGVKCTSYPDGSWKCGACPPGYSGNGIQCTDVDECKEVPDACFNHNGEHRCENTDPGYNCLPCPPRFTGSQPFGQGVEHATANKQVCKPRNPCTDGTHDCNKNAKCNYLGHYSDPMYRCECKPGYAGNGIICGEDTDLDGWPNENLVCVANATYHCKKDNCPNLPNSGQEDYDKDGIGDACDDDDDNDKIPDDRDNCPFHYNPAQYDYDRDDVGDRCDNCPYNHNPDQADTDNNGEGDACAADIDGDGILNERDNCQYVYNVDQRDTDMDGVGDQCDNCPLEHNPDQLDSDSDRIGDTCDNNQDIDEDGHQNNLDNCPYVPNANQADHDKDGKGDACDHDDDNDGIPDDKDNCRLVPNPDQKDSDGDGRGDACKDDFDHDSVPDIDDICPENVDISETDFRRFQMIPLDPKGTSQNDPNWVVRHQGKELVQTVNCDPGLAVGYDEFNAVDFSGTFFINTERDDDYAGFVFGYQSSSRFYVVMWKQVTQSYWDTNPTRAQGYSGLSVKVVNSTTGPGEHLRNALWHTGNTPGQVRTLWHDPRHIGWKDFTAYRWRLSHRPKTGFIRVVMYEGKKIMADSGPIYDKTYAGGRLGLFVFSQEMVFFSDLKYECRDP

Row | Substance | TSP1 detected by Western Blot after immunoprecipitation with anti-CD47 antibody (TSP1/CD47 interaction) (TSP1/CD47 complexes) | viability of the tumor cells [1] | other results
1 | CEVSQLLKGDAC [SEQ ID NO: 2] | prevents the molecular interaction between the TSP1 protein and the CD47 receptor |  | mice showing a large necrotic area located in the tumor (B16-F1 mouse melanoma; 10 mg/kg intraperitoneal on days 3, 5 and 7, tumors on day 20): 4/8; necrotic area in the tumor by MRI analysis (B16-F1 mouse melanoma; day 12 after the injection of the tumor cells): has a necrotic area
2 | IEVSQLLKGDAS (Antagonist peptide of the bond between a receptor CD47 and a protein belonging to the thrombospondin family) [SEQ ID NO: 1] | TSP1 is no longer detected |  | 
3 | KRFYGGMWK [4NGG] |  | does not have any effect | 
4 | KRFYVVMWK [4N1] |  | viability of the tumor cells is greater | protection of the tumor cells against the anti-cancer drugs ([1]; 100 μM peptide plus B6H12 antibody (100 μg/mL) blocking CD47): no longer protects the tumor cells
5 | TSP1: thrombospondin-1, extracellular matrix glycoprotein binding the CD47 receptor |  |  | caspase-3 activity (para-nitroaniline released per hour per μg of protein) [2]: inhibited considerably
